Measured values reported in ChEMBL document CHEMBL4813955 (Eur J Med Chem, 2021).
Activity calls are given as the source filed them. The rule behind the calls is not given here.

Tests used:
[1] = target: T1, 5-hydroxytryptamine receptor 2C (Homo sapiens) (UniProt P28335); assay: Displacement of [3H]-Mesulergine from human 5-HT2C receptor at 10 uM incubated for 1 hr by liquid scintillation counting method
T1 sequence (whole entry): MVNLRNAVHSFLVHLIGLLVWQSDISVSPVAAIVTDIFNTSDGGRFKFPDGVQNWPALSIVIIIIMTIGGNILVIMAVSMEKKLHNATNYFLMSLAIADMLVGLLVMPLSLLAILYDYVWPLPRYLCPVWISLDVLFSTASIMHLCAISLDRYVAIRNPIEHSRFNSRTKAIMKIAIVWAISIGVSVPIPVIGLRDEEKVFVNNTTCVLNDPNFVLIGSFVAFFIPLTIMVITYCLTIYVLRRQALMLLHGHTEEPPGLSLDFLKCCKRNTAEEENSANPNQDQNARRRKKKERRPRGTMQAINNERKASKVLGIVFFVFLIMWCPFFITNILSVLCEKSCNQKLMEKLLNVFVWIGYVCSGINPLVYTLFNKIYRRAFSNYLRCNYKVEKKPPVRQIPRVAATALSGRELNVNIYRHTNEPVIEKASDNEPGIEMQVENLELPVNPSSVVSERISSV

[2] = target: D(2) dopamine receptor (Homo sapiens, UniProt P14416); assay: Displacement of [3H]N-methylspiperone from human dopamine D2 receptor at 10 uM incubated for 1 hr by liquid scintillation counting method
[3] = target: D(3) dopamine receptor (Homo sapiens, UniProt P35462); assay: Displacement of [3H]N-methylspiperone from human dopamine D3 receptor at 10 uM incubated for 1 hr by liquid scintillation counting method
[4] = target: T2, D(4) dopamine receptor (Homo sapiens) (UniProt P21917); assay: Displacement of [3H]N-methylspiperone from human dopamine D4 receptor at 10 uM incubated for 1 hr by liquid scintillation counting method
T2 sequence (whole entry): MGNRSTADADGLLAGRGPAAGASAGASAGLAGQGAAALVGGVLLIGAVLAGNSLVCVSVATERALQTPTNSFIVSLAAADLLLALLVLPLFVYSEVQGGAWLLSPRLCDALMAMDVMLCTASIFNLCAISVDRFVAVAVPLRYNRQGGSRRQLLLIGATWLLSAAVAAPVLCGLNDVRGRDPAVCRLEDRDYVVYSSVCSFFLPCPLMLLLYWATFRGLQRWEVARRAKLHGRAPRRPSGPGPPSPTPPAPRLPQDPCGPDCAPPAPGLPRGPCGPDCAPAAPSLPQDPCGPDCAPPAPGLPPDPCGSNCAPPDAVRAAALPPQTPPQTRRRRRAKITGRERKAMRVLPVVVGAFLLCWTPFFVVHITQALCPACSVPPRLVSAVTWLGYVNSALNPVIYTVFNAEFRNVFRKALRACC

D(2) dopamine receptor, sequence (P14416 whole entry): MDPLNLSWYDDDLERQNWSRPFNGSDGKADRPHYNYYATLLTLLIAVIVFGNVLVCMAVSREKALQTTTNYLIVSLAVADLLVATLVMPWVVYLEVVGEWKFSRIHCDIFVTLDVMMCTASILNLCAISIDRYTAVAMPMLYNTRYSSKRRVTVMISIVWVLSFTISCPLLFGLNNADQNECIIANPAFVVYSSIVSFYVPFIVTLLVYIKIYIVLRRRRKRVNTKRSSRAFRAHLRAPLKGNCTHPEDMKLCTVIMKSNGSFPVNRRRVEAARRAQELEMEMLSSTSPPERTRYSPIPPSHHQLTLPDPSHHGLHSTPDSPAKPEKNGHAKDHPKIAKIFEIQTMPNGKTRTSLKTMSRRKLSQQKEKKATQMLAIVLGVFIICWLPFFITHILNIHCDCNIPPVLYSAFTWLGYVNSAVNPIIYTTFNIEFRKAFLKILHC
D(3) dopamine receptor, sequence (P35462 whole entry): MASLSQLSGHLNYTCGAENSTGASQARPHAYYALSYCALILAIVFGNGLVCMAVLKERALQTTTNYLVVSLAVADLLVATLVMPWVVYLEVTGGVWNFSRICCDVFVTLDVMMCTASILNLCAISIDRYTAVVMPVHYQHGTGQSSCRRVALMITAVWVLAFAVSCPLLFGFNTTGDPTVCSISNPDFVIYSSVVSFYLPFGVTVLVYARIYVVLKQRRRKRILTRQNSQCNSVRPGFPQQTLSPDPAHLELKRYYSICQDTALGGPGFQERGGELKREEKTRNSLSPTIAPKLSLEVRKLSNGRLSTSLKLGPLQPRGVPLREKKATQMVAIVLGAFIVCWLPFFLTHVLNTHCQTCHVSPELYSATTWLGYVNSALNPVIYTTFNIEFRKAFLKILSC

| inhibition [1] | inhibition [2] | SMILES | further results |
| --- | --- | --- | --- |
|  | inactive | O=C1c2ccc(Cl)cc2CC1CCN1CCN(c2ccccn2)CC1 (stereo not given) | inhibition [3]: inactive |
|  | inactive | O=C1c2ccc(Cl)cc2CC1CCCN1CCN(c2ccccn2)CC1 (stereo not given) |  |
| inactive |  | O=C1CCc2cc(C(=O)CCCN3CCN(c4ccccn4)CC3)ccc2N1 |  |
| inactive | inactive | O=C1c2ccc(F)cc2CC1CCN1CCN(c2ccccn2)CC1 (stereo not given) |  |
|  |  | O=C1CCc2cc(OCCCN3CCCN(c4ccccn4)CC3)ccc2N1 | inhibition [4]: inactive |
| inactive |  | OC1c2ccc(F)cc2CC1CCN1CCN(c2ccccn2)CC1 (stereo not given) |  |

| SMILES | inhibition [1] | inhibition [2] | further results |
| --- | --- | --- | --- |
| Nc1ccc(CCCCN2CCN(c3ccccn3)CC2)cc1 | inactive |  |  |
| O=C1CCc2cc(OCCCN3CCN(c4ccccn4)CC3)ccc21 |  | inactive |  |
